Assay results published in patent US12454529B2, “Piperazine cyclic ureas” (SIRONAX LTD., priority 2020, dated 2025).

Test system: HT-29 cells
Test: HT-29 cell necrosis/necroptosis inhibition (TNF-α + SMAC mimetic + zVAD-FMK; CellTiter-Glo cell viability)
Type: cell-based
Conditions: Homo sapiens; HT-29 cells, TNF-α 10 ng/ml + SMAC mimetic 6 μM + zVAD-FMK 10 μM, 20 hours; geometric mean, 10 points in duplicate; read-out: EC50 (Cell activity; Necrosis/Necroptosis Inhibitory Activity, Compounds 1-142)
Protocol: Compounds 1-319 (denoted as Compound Nos. 1 through 319 in Table 3 and 4) of the disclosure were tested for binding and cellular RIP1 inhibitory activity following the experimental procedures described below.
• Cell line: HT-29 (ATCC® HTB-38™) • Culture medium: McCOY's 5A, Gibco, Cat No. 16600-082 • FBS, Gibco, Cat No. 10099-141C • Trypsin: Gibco, Cat No. 25200-056 • DMSO: Sigma, Cat No. 67-68-5, 1L • Assay plate: Corning #3903 • Compound dilution plate: Corning #3357 • Inducers: TNFα, GenScript, Cat No. Z01001-50, • SmacM, Cat. No., HY-15989, MedChemExpress (MCE) • Z_VAD FMK, TargetMol, T6013 • Cell Titer-Glo® Luminescent Cell Viability Assay Kit: Promega, Cat No. G7573 • EnVision: PerkinElmer, 2105-0010 Methods Cell Seeding
1. HT-29 cells were checked every day to make sure that they were healthy and growing as expected. They were subjected to sub-culturing when they were approximately 80% confluent.
2. The culture medium, McCOY's 5A medium (Gibco, Cat No. 16600-082) with 10% fetal bovine serum or FBS (Gibco, Cat No. 10099-141C), was pre-warmed in a 37° C. water bath for at least 30 min.
3. When the cells had reached a desired level of confluency of 80% in a T75 flask, the medium was aspirated, and the cells were washed with warm phosphate buffered saline or PBS two times.
4. 2-3 ml fresh warm trypsin (Gibco, Cat No. 25200-056) solution was added to the washed cells. The flask with the cells was transferred to a 37° C. incubator.
5. After 5 minutes, the side of the flask was tapped, and the flask was examined under a microscope for detachment of the cells to the flask. If necessary, the cells were kept in the incubator for an additional 5-10 minutes, with occasional tapping, until lifting was complete.
6. The trypsin reaction was neutralized by transferring 6-9 ml cell culture medium to sterile 15 ml conical tubes, and by centrifuging the cell culture at 300×g for 7 minutes to pellet the cells (supernatant decanted).
7. The cells were resuspended in fresh cell culture medium and the cell counting was performed using a hemocytometer.
8. 100 μl of the resuspended cell culture medium containing ˜5,000 cells were transferred into each well of the sterile 96-well cell culture plate (Corning 3903) and cultured overnight at 37° C. with 5% CO2.
Compound Titration and Treatment
1. All test compounds were dissolved in DMSO (Dimethyl sulfoxide) to create a 20 mM stock.
2. 3 μl of each compound 20 mM stock was mixed with 27 μl DMSO, and the compound solution was further diluted at a titration ratio of 1:3 (20 μl compound solution+40 μl DMSO) till the 10 points end.
3. All culture medium was removed from assay plates filled with HT-29 cell cultures. The cells were then washed with 1 PBS, and resuspended in fresh, FBS-free McCOY's 5A medium containing a cocktail of TNF-α (10 ng/ml), a SMAC mimetic compound (6 μM) and Z-VAD-fluoromethylketone or zVAD-FMK (10 μM) to stimulate the HT-29 cells to increase RIP1 kinase levels and necroptosis.
4. 0.5 μL of the diluted compound solution was added to the corresponding 96-well assay plates.
5. The assay plates were incubated for 20 hours at 37° C. with 5% CO2.
1. The CellTiter-Glo® Luminescent Cell Viability Assay was employed to detect the ATP levels of viable HT-29 cells.
2. The CellTiter-Glo® buffer and the lyophilized substrate were equilibrated to room temperature prior to use.
3. The CellTiter-Glo® substrate was resuspended with CellTiter-Glo® buffer, then mixed by gently vortexing to obtain a homogeneous solution.
4. 20 μl the enzyme/substrate mixture was transferred by multi-channel pipetting into 96-well assay plates.
5. The assay plates were placed on an orbital shaker and the contents were shaken for 3 minutes to induce cell lysis.
6. The assay plates were incubated at room temperature for 10 minutes to stabilize the luminescent signal.
7. The luminescence signals were read and recorded with EnVision.
8. The geometric mean EC50 values were calculated from 10 points response dose with duplicates. In

| Compound | EC50 [nM] |
| --- | --- |
| Cc1nn(CC2CCOCC2)c(C)c1-c1nc(N2CCN(C(=O)N3N=CC[C@H]3c3cc(F)cc(F)c3)CC2)ncc1F [Compound 122, (S)-(5-(3,5-difluorophenyl)-4,5-dihydro-1H-pyrazol-1-yl)(4-(4-(3,5-dimethyl-1-((tetrahydro-2H-pyran-4-yl)methyl)-1H-pyrazol-4-yl)-5-fluoropyrimidin-2-yl)piperazin-1-yl)methanone] | 0.1 to 100 |
| CCn1c(C)nn(-c2nc(N3CCN(C(=O)N4N=CC[C@H]4c4cc(F)cc(C#N)c4)CC3)ncc2F)c1=O [Compound 97, (S)-3-(1-(4-(4-(4-ethyl-3-methyl-5-oxo-4,5-dihydro-1H-1,2,4-triazol-1-yl)-5-fluoropyrimidin-2-yl)piperazine-1-carbonyl)-4,5-dihydro-1H-pyrazol-5-yl)-5-fluorobenzonitrile] | 0.1 to 100 |
| Cn1ncc(C#N)c1-c1nc(N2CCN(C(=O)N3N=CC[C@H]3c3cc(F)cc(C#N)c3)CC2)ncc1F [Compound 67, (S)-5-(2-(4-(5-(3-cyano-5-fluorophenyl)-4,5-dihydro-1H-pyrazole-1-carbonyl)piperazin-1-yl)-5-fluoropyrimidin-4-yl)-1-methyl-1H-pyrazole-4-carbonitrile] | 0.1 to 100 |
| N#Cc1cc(F)cc([C@@H]2CC=NN2C(=O)N2CCN(c3nccc(-c4cc[nH]n4)n3)CC2)c1 [Compound 34, (5)-3-(1-(4-(4-(1H-pyrazol-3-yl)pyrimidin-2-yl)piperazine-1-carbonyl)-4,5-dihydro-1H-pyrazol-5-yl)-5-fluorobenzonitrile] | 0.1 to 100 |
| Cc1cnn(C)c1-c1nc(N2CCN(C(=O)N3N=CC[C@H]3c3cc(F)cc(F)c3)CC2)ccc1F [Compound 113, (S)-(5-(3,5-difluorophenyl)-4,5-dihydro-1H-pyrazol-1-yl)(4-(6-(1,4-dimethyl-1H-pyrazol-5-yl)-5-fluoropyridin-2-yl)piperazin-1-yl)methanone] | 0.1 to 100 |
| Cc1nc(C)n(-c2nc(N3CCN(C(=O)N4N=CC[C@H]4c4cc(F)cc(F)c4)CC3)ncc2F)n1 [Compound 46] | 0.1 to 100 |
| Cc1nn(CCC2CCOCC2)c(C)c1-c1nc(N2CCN(C(=O)N3N=CC[C@H]3c3cc(F)cc(C#N)c3)CC2)ncc1F [Compound 138, (S)-3-(1-(4-(4-(3,5-dimethyl-1-(2-(tetrahydro-2H-pyran-4-yl)ethyl)-1H-pyrazol-4-yl)-5-fluoropyrimidin-2-yl)piperazine-1-carbonyl)-4,5-dihydro-1H-pyrazol-5-yl)-5-fluorobenzonitrile] | 0.1 to 100 |
| Cc1nc(C#N)nn1-c1nc(N2CCN(C(=O)N3N=CC[C@H]3c3cc(F)cc(C#N)c3)CC2)ncc1F [Compound 139, (S)-1-(2-(4-(5-(3-cyano-5-fluorophenyl)-4,5-dihydro-1H-pyrazole-1-carbonyl)piperazin-1-yl)-5-fluoropyrimidin-4-yl)-5-methyl-1H-1,2,4-triazole-3-carbonitrile] | 0.1 to 100 |
| COc1cc(-c2nc(N3CCN(C(=O)N4N=CC[C@H]4c4cc(F)cc(F)c4)CC3)ncc2F)nc(OC)n1 [Compound 19, (S)-(5-(3,5-difluorophenyl)-4,5-dihydro-1H-pyrazol-1-yl)(4-(5-fluoro-2′,6′-dimethoxy-[4,4′-bipyrimidin]-2-yl)piperazin-1-yl)methanone] | 0.1 to 100 |
| Cc1nc(C)n(-c2ncnc(N3CCN(C(=O)N4N=CC[C@H]4c4cc(F)cc(C#N)c4)CC3)n2)n1 [Compound 130, (S)-3-(1-(4-(4-(3,5-dimethyl-1H-1,2,4-triazol-1-yl)-1,3,5-triazin-2-yl)piperazine-1-carbonyl)-4,5-dihydro-1H-pyrazol-5-yl)-5-fluorobenzonitrile] | 0.1 to 100 |

Same assay, conditions: Homo sapiens; HT-29 cells, TNF-α 10 ng/ml + SMAC mimetic 6 μM + zVAD-FMK 10 μM, 20 hours; geometric mean, 10 points in duplicate; read-out: EC50 (Cell activity; Necrosis/Necroptosis Inhibitory Activity, Compounds 143-323)

| Compound | EC50 [nM] |
| --- | --- |
| Cc1nn(-c2nc(N3CCN(C(=O)N4N=CC[C@H]4c4cc(F)cc(C#N)c4)CC3)ncc2F)c(C)c1C#N [Compound 275, (S)-1-(2-(4-(5-(3-cyano-5-fluorophenyl)-4,5-dihydro-1H-pyrazole-1-carbonyl)piperazin-1-yl)-5-fluoropyrimidin-4-yl)-3,5-dimethyl-1H-pyrazole-4-carbonitrile] | 0.1 to 100 |
| Cc1nc(C)n(-c2ncc(F)c(N3CCN(C(=O)N4N=CC[C@H]4c4cc(F)cc(F)c4)CC3)n2)n1 [Compound 257, (S)-(5-(3,5-difluorophenyl)-4,5-dihydro-1H-pyrazol-1-yl)(4-(2-(3,5-dimethyl-1H-1,2,4-triazol-1-yl)-5-fluoropyrimidin-4-yl)piperazin-1-yl)methanone] | 0.1 to 100 |
| Cc1nc(CO)nn1-c1nc(N2CCN(C(=O)N3N=CC[C@H]3c3cc(F)cc(C#N)c3)CC2)ncc1F [Compound 144, (S)-3-fluoro-5-(1-(4-(5-fluoro-4-(3-(hydroxymethyl)-5-methyl-1H-1,2,4-triazol-1-yl)pyrimidin-2-yl)piperazine-1-carbonyl)-4,5-dihydro-1H-pyrazol-5-yl)benzonitrile] | 0.1 to 100 |
| Cc1nn2c(c1-c1nc(N3CCN(C(=O)N4N=CC[C@H]4c4cc(F)cc(C#N)c4)CC3)ncc1F)CCC2 [Compound 184, (S)-3-fluoro-5-(1-(4-(5-fluoro-4-(2-methyl-5,6-dihydro-4H-pyrrolo[1,2-b]pyrazol-3-yl)pyrimidin-2-yl)piperazine-1-carbonyl)-4,5-dihydro-1H-pyrazol-5-yl)benzonitrile] | 0.1 to 100 |
| Cc1cnn(C)c1-c1ncc(F)c(N2CCN(C(=O)N3N=CC[C@H]3c3cc(F)cc(C#N)c3)CC2)n1 [Compound 268, (S)-3-(1-(4-(2-(1,4-dimethyl-1H-pyrazol-5-yl)-5-fluoropyrimidin-4-yl)piperazine-1-carbonyl)-4,5-dihydro-1H-pyrazol-5-yl)-5-fluorobenzonitrile] | 0.1 to 100 |
| Cc1nn(-c2cc(N3CCN(C(=O)N4N=CC[C@H]4c4cncc(F)c4)CC3)ncn2)c(C)c1C(N)=O [Compound 284, (S)-1-(6-(4-(5-(5-fluoropyridin-3-yl)-4,5-dihydro-1H-pyrazole-1-carbonyl)piperazin-1-yl)pyrimidin-4-yl)-3,5-dimethyl-1H-pyrazole-4-carboxamide] | 100 to 1000 |
| Cc1nn(-c2ccnc(N3CCN(C(=O)N4N=CC[C@H]4c4cc(F)cc(C#N)c4)CC3)n2)c(C)c1S(C)(=O)=O [Compound 206, (S)-3-(1-(4-(4-(3,5-dimethyl-4-(methylsulfonyl)-1H-pyrazol-1-yl)pyrimidin-2-yl)piperazine-1-carbonyl)-4,5-dihydro-1H-pyrazol-5-yl)-5-fluorobenzonitrile] | 0.1 to 100 |
| Cc1nc(C#N)nn1-c1nc(N2CCN(C(=O)N3N=CC[C@H]3c3cncc(F)c3)CC2)ncc1F [Compound 255, (S)-1-(5-fluoro-2-(4-(5-(5-fluoropyridin-3-yl)-4,5-dihydro-1H-pyrazole-1-carbonyl)piperazin-1-yl)pyrimidin-4-yl)-5-methyl-1H-1,2,4-triazole-3-carbonitrile] | 0.1 to 100 |
| Cc1nc(C)n(-c2nc(N3CCN(C(=O)N4N=CC[C@H]4c4cnc(C)s4)CC3)ncc2F)n1 [Compound 240, (S)-(4-(4-(3,5-dimethyl-1H-1,2,4-triazol-1-yl)-5-fluoropyrimidin-2-yl)piperazin-1-yl)(5-(2-methylthiazol-5-yl)-4,5-dihydro-1H-pyrazol-1-yl)methanone] | 0.1 to 100 |
